The test system of test [1] is PBMC. The experiment in a line: PBMC activation, TNFα and IL-1β ELISA. In kind it is cell-based, human. The note with it: for adjuvant (alarmin) activity compared with NCL-P2 / adjuvant (alarmin) activity compared with NCL-P2+G: PBMC stimulated 24 hr; for adjuvant (alarmin) activity compared with NCL-P2: TNFα in media; for adjuvant (alarmin) activity compared with NCL-P2+G: TNFα by ELISA; for TNFα induction from PBMC by known CPPs / TNFα production from PBMC: 24 hr; for TNFα induction from PBMC by known CPPs: ELISA; for TNFα production from PBMC: recombinant protein coated on plates. As for the experimental part:
Buffy coat fractions were obtained from healthy blood donors at the Singapore Health Sciences Authority, with Institutional ethics approval, and PBMC were isolated using Ficoll-Paque (GE Healthcare). To isolate monocytes, PBMC were re-suspended to 1×10^7 cells/ml in the RPMI medium contained 5% (v/v) BCS and incubated for 1 hr in T75 flasks (20 ml/flask). Monocytes that adhered were harvested. To culture macrophages and DC [Cao, W., et al., Blood 107: 2777-2785, (2006), incorporated herein by reference], monocytes were resuspended to 1×10^6 cells/ml and cultured in 6-well plates (2 ml/well). Macrophages were cultured by adding M-CSF to 20 ng/ml and DC were cultured with 20 ng/ml GM-CSF and 40 ng/ml IL-4. M-CSF, GM-CSF and IL-4 were obtained from R&D Systems (Mineapolis, Minn.). Cells were cultured for 6 days with half of the media being replenished every two days.
Purified proteins in PBS (30 μg/ml) were coated in triplicates in 96-well plates (50 μl/well) for 12 hr and PBMC (3×10^6 cells/ml), monocytes (1×10^6 cells/ml), macrophages (0.5×10^6 cells/ml) or DC (0.5×10^6 cells/ml) were re-suspended in macrophage serum-free medium containing penicillin and streptomycin and cultured for 24 hr in these plates at 100 μl/well. Where TLR ligands were used to stimulate these cells, they were added to the media: LPS (500 ng/ml for DC and macrophages and 10 ng/ml for PMBC and monocytes, InvivoGen), flagellin (1 μg/ml, InvivoGen), lipoteichic acid (LTA, 10 μg/ml). Cell activation was determined by measuring TNFα and IL-1β in the culture media using ELISA kits (Invitrogen).
In general terms: ELISA stands for enzyme-linked immunosorbent assay.

Test [2] relates to PBMC. As to the kind of experiment: Peptide binding to and penetration of PBMC, flow cytometry. In kind it is cell-based, human. Particulars: for CPP activity compared with P2+G / CPP activity compared with NCL-P2: PBMC; for CPP activity compared with P2+G: 1 hr at 4° C. and 37° C., MFI; for CPP activity compared with NCL-P2: peptide 200 μg/ml; for CPP activity compared with NCL-P2 / intracellular pool / cell penetration (CPP activity) in PBMC: 1 hr at 4° C.; for intracellular pool / cell penetration (CPP activity) in PBMC: fixed/permeabilized, streptavidin-AF488. As to the method:
PBMC re-suspended in 100 μl macrophage serum free media (3×10^6/ml) were incubated with different peptides (200 μg/ml). PBMC (100 μl) were incubated with the peptides for 1 hr at 37° C. or 4° C. Cells were washed twice in 2% FBS/PBS and incubated with streptavidin-AF488 and Zombie (NIR) Fixable viability stain-APC-Cy7 for 30 min at 4° C. Cells were then fixed with 1% PFA for 30 min at room temperature and analysed using the Fortessa analyser (BD). In some experiments, PBMC were, after incubation with peptides, incubated with Zombie (NIR) Fixable viability stain (APC-Cy7) for 30 min at 4° C. Cells were then fixed and permeabilized with BD CYTOFIX/CYTOPERM™ Kit for 20 min at 4° C., and then incubated with streptavidin-AF488 for 30 min at 4° C. In some experiments, PBMC were, after incubation with the peptides, stained with fluorescent mouse antibodies specific for monocytes (CD14/BV711), T cells (CD3/PerCP-Cy5-5) and B cells (CD19/Pacific blue). Cells were then stained with Zombie (NIR) Fixable viability stain-APC-Cy7 and streptavin-AF488, with or without membrane permeabilization. In these experiments, monocytes, T cells and B cells were separately gated to detect surface peptide binding and intracellular peptide penetration.
Background: A flow cytometer gives signals particle by particle.

For test [3], the target named is TLR2 (Homo sapiens, UniProt O60603). The experiment in a line: TLR2 binding assay (ELISA plate). The note with it: for soluble protein binding to coated TLR2: TLR2 coated 2 μg/ml, protein 0-20 μg/ml, anti-HA detection; for TLR2 binding at the highest concentration tested: peptide 200 μg/ml. Set-up: purchased R&D Systems.

“Also recorded” adds a separate entry of the source.

TLR2, sequence (O60603 21-590 limits assumed): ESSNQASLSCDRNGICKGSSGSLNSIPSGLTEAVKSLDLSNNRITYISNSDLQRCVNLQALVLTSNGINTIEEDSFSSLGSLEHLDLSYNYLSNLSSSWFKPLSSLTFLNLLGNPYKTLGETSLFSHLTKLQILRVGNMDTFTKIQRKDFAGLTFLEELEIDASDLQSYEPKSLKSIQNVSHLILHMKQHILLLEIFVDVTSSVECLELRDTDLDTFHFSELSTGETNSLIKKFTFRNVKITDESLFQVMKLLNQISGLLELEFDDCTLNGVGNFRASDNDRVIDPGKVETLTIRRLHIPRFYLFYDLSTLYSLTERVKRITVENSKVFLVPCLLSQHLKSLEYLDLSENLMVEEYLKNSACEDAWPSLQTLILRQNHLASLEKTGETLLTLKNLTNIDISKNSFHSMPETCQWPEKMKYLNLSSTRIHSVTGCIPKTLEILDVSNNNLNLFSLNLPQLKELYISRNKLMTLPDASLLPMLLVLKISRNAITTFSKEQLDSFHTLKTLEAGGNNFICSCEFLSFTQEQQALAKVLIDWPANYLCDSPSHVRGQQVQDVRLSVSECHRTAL

“RRRRNRTRRNRRRVRRRRRNRTRRNRRRVR (2xCPP4) [2×CPP4, reference compound]”: the “alarmin activity compared with CPP4” value in test [1] (PBMC 24 hr, TNFα ELISA) is listed as “Little increase in alarmin activity”.
Take “GGFGGRGGRGGFGGRGGRGGFGGRGGRGGFGGRGGRGG (NCL-P2+2G)”: the “adjuvant (alarmin) activity compared with NCL-P2” value in test [1] was “diminished rather than increased adjuvant activity; also recorded: slightly reduced alarmin activity”.
Take “GGLGGRGGGRGGRGGLGGRGGRGGLGGRGGLRGGRGG (GGLGRRGGGRGGRGGLGGRGGRGGLGGRGGLRGGRGG; NCL-P2+G(F/L))”: the “adjuvant (alarmin) activity compared with NCL-P2+G” value (“adjuvant … compared with NCL-P2+G” below) in test [1] is “stronger alarmin activity than P2+G; also recorded: retained the alarmin activity”. In test [2], the “CPP activity compared with P2+G” value was “acquired higher CPP activities” and the “CPP activity compared with NCL-P2” value is on record as “slightly increased their CPP activities”.
With “GGFGPRGGPRGPRGGFGPRGPRGGFGPRGGFRGPRGP (NCL-P2+G(G/P))”, the “adjuvant … compared with NCL-P2+G” value in test [1] is “lost the alarmin activity”. Moreover, the “CPP activity compared with P2+G” value in test [2] is “completely lost the CPP activity”.
Consider “NCL(649)-HA: NCL-HA C-terminal deletion mutant which lacks the GAR/RGG region”, for which the “soluble protein binding to coated TLR2” value in test [3] is on record as “not observed”. The “His-tagged TLR2 binding to coated protein” value in test [3] (protein coated 10 μg/ml, TLR2 0.375-6.0 μg/ml) was “no binding”.
“GGRGGRGGGRGGRGGRGGRGRGGRGGRGGRRGGRGG (NCL-P2F/R)”: the entries for the “adjuvant (alarmin) activity compared with NCL-P2” value in test [1], in test [1] (listed as P2F/R) and in test [1] (listed as SEQ ID NO: 21) were “losing significant alarmin activity; also recorded: no significant alarmin activity”, “reduced alarmin activity; also recorded: diminished alarmin activities” and “substantially reduced its adjuvant activity”, respectively. Besides, in test [2], the “increase in CPP activity compared with NCL-P2” value was “approx. 8 fold”. The figures for the “CPP activity compared with NCL-P2” value in test [2] and in test [2] (listed as P2F/R) were “gained substantial CPP activity; also recorded: have cell-penetrating activity” and “strong CPP”, respectively.
As to “NCL-P7: short peptide corresponding to the non-repetitive C-terminal end of the 48-residue GAR/RGG region (FRGGRGG; NCL-P7)”, the “intracellular pool / cell penetration (CPP activity) in PBMC” value (shortened to “intracellular pool / cell penetration”) in test [2] was “all lacked cell penetration”.
On to “NCL-P4: peptide representing the N-terminal half of NCL-P6 (RGGFGGRGGG; NCL-P4)”, for which the “intracellular pool / cell penetration” value in test [2] is “all lacked cell penetration”. Also, the “TLR2 binding at the highest concentration tested” value in test [3] is on record as “no TLR2 binding”.
Consider “GWTLNSAGYLLGKINLKALAALAKKIL [CPP6, reference compound]”, for which the “TNFα induction from PBMC by known CPPs” value in test [1] is “No significant TNFα”.
For the molecule “NCL(522)-HA: NCL-HA C-terminal deletion mutant of 522 residues which lacks the GAR/RGG region”, in test [3], the “soluble protein binding to coated TLR2” value was “not observed”.
On to “NCL-P5: peptide representing the C-terminal half of NCL-P6 (RGGRGGFGGRG; NCL-P5)”, for which, in test [2], the “intracellular pool / cell penetration” value is “all lacked cell penetration”. For the same molecule, the “TLR2 binding at the highest concentration tested” value in test [3] was “low level of TLR2 binding”.
As for “GGIGGRGGGRGGRGGIGGRGGRGGIGGRGGIRGGRGG (NCL-P2+G(F/I))”, the “adjuvant … compared with NCL-P2+G” value in test [1] is “retained the alarmin activity”. For the same molecule, in test [2], the “CPP activity compared with P2+G” value is “acquired higher CPP activities” and the “CPP activity compared with NCL-P2” value is reported as “slightly increased their CPP activities”.
With “MVTVLFRRLRIRRACGPPRVRV (CPP7) [reference compound]”, in test [1], the “TNFα induction from PBMC by known CPPs” value is “No significant TNFα”.
In the case of “GGFGGKGGGKGGKGGFGGKGKGGFGGKGGFKGGKGG (NCL-P2R/K)”, the “adjuvant (alarmin) activity compared with NCL-P2” value in test [1] is listed as “lost CPP as well as alarmin activity”; in test [1] (listed as R/K mutant of NCL-P2) it was “lost its adjuvant activity”; in test [1] (listed as SEQ ID NO: 20) it was “completely abolished its adjuvant activity”. Moreover, the “CPP activity compared with NCL-P2” value in test [2] was “lost CPP as well as alarmin activity”. In addition, the “PBMC penetration at 37° C. or 4° C.” value in test [2] (compared with NCL-P2) is “no longer penetrates PBMC”.
On to “GGYGGRGGGRGGRGGYGGRGRGGYGGRGGYRGGRGG (NCL-P2F/Y)”, for which the “adjuvant (alarmin) activity compared with NCL-P2” value is given as “alarmin activity was diminished; also recorded: no significant alarmin activity” in test [1] and “markedly diminished its adjuvant activity” in test [1] (listed as SEQ ID NO: 23). Also, the “CPP activity compared with NCL-P2” value in test [2] was “gained significant CPP activity; also recorded: have cell-penetrating activity”.
Consider “GGFGGRGGGRGGRGGFGGRGGRGGFGGRGGFGGRGGRGG (NCL-P2+3G)”, for which, in test [1], the “adjuvant … compared with NCL-P2+G” value was “no further improvement in adjuvant activity and instead it slightly reduced the high adjuvant activity”; the “adjuvant (alarmin) activity compared with NCL-P2” value was “significantly higher alarmin activity”. Besides, in test [2], the “CPP activity compared with NCL-P2” value is given as “slightly higher CPP activity”. For the same molecule, the “CPP activity compared with NCL-P2” value in test [2] (listed as P2+3G) is recorded as “slightly increased their CPP activities”.
Turning to “GGFGARGGARGARGGFGARGARGGFGARGGFRGARGA (NCL-P2+G(G/A))”, in test [1], the “adjuvant … compared with NCL-P2+G” value is on record as “lost the alarmin activity”. In test [2], the “CPP activity compared with P2+G” value is given as “completely lost the CPP activity”.
On to “GGWGGRGGGRGGRGGWGGRGRGGWGGRGGWRGGRGG (NCL-P2F/W)”, for which the “adjuvant (alarmin) activity compared with NCL-P2” value in test [1] is listed as “lost the alarmin activity; also recorded: no significant alarmin activity”; in test [1] (listed as SEQ ID NO: 24), “markedly diminished its adjuvant activity”. Besides, the “CPP activity compared with NCL-P2” value in test [2] is “retained the CPP activity; also recorded: have cell-penetrating activity”.

B1: GAR1-HA: recombinant GAR1 with a C-terminal HA tag (protein, UniProt Q9NY12 1-217, looked up)
H/ACA ribonucleoprotein …: MSFRGGGRGGFNRGGGGGGFNRGGSSNHFRGGGGGGGGGNFRGGGRGGFGRGGGRGGFNKGQDQGPPERVVLLGEFLHPCEDDIVCKCTTDENKVPYFNAPVYLENKEQIGKVDEIFGQLRDFYFSVKLSENMKASSFKKLQKFYIDPYKLLPLQRFLPRPPGEKGPPRGGGRGGRGGGRGGGGRGGGRGGGFRGGRGGGGGGFRGGRGGGFRGRGH
modifications: C-terminal HA tag
With B1, the “TNFα production from PBMC” value in test [1] is “indeed activated PBMC”.

B2: FBRL: recombinant fibrillarin with C-terminal HA tag (protein)
chain: MKPGFSPRGGGFGGRGGFGDRGGRGGRGGFGGGRGRGGGFRGRGRGGGGGGGGGGGGGRGGGGFHSGGNRGRGRGGKRGNQSGKNVMVEPHRHEGVFICRGKEDALVTKNLVPGESVYGEKRVSISEGDDKIEYRAWNPFRSKLAAAILGGVDQIHIKPGAKVLYLGAASGTTVSHVSDIVGPDGLVYAVEFSHRSGRDLINLAKKRTNIIPVIEDARHPHKYRMLIAMVDVIFADVAQPDQTRIVALNAHTFLRNGGHFVISIKANCIDSTASAEAVFASEVKKMQQENMKPQEQLTLEPYERDHAVVVGVYRPPPKVKN
modifications: C-terminal HA tag; FBRL
Turning to B2, the “TNFα production from PBMC” value in test [1] was “strongly induced TNFα production”.
